Patent publication US20060035317A1, “Effect of treatment with 4,5-dihydroxy-2-cyclopenten-1-one (dhcp) on gene expression and quorum-sensing in bacteria” (priority 2002, published 2006)
Where “and” joins values, the source holds several entries; their conditions need not be identical. Identical values can stand only once.

System: E. coli wild-type strain JM83 (gene expression)
Assay: DNA microarray analysis of mRNA levels in DHCP-treated vs control cells
Format: cell-based
Settings: DHCP 250 μM, 8 h
Procedure: E. coli wild-type strain JM83 [F^− araΔ(lac-proAB) rpsL(str^r)] (Yanisch-Perron et al., 1985) was grown in Luria broth (LB). V. harveyi strains BB152 and BB170 were a gift from Dr. Bonnie Bassler (Princeton University). These strains were grown in AB medium as described previously (Surette et al., 1999).
E. coli cells grown overnight in LB medium were diluted into fresh LB medium. After the growth reached a Klett unit of 50, DHCP was added (250 μM) and growth was further monitored. After growth reached a Klett unit of 90-100, it was diluted 10-fold into a medium containing the same concentration of DHCP as described previously (Phadtare et al., 2001). The cells were harvested after a total of 8 h of incubation with DHCP. […] The total RNA was extracted by the hot phenol method described previously (Sarmientos et al., 1983). It was further purified by RNeasy Minikit (Qiagen) and was then treated with DNase I followed by phenol-chloroform treatment and ethanol precipitation. It was quantified by measuring absorbance at 260 nm. The purity of RNA was confirmed by agarose gel electrophoresis.
The mRNAs were labeled with Cy3-dUTP and Cy5-dUTP (Amersham Pharmacia). Random Hexamer pd(N)6 (Amersham Pharmacia) was used as a primer and the IntelliGene E. coli CHIP Version 1 (Takara Shuzo, Co. Ltd., Japan) the DNA microarray was used. This represents the entire ORF of E. coli K-12 W3110.
The cell densities of the control (untreated) and the DHCP-treated cells used were the same; thus, the changes seen in the microarray were not substantially influenced by the difference in cell densities. RNAs isolated from the respective cells were used to generate probes for hybridization of DNA arrays and the data were quantified as described in the Materials and Methods section of this Example. Calculation of the log expression ratios of the corresponding spots allowed pair-wise comparisons of the relative transcript levels for each of the E. coli genes under the two growth conditions. Only those genes whose expression levels differed by log ratio of at least four were considered. In some cases, genes belonging to same operon or category were considered even if the log ratios differed by the factor of only three or little less than three. Log ratios above zero value indicate induction and below zero value indicate repression by DHCP treatment. […] The results of both methods are in agreement with each other.

## O=C1C=CC(O)C1O (centres unmarked) [DHCP, 4,5-dihydroxy-2-cyclopenten-1-one]
Cys regulon genes cysA, cysD, cysH, cysI, cysJ, cysk, cysM, cysN, cysP, cysQ, cysU, cysW
  Increase of mRNA levels: 3-20 times
Gene CysH (Adenylsulphate reductase)
  Ratio (DHCP-treated/control): 6.50
Gene CysI (Sulfite reductase(NADPH) alpha subunit)
  Ratio (DHCP-treated/control): 7.30
Gene CysJ (Sulfite reductase(NADPH) beta subunit)
  Ratio (DHCP-treated/control): 4.70
Gene CysK (Cysteine synthase)
  Ratio (DHCP-treated/control): 20
Gene CysM (O-acetylserine (thiol)-lyase B)
  Ratio (DHCP-treated/control): 3.00
Gene CysN (Sulfate adenylyltransferase)
  Ratio (DHCP-treated/control): 5.00
Gene CysP (Thiosulfate-binding protein CysP precursor)
  Ratio (DHCP-treated/control): 3.55
Gene CysQ (Ammonium transport protein CysQ)
  Ratio (DHCP-treated/control): 3.28
Gene CysW (Sulfate/thiosulfate transport protein CysW)
  Ratio (DHCP-treated/control): 15.00
Gene EntA (2,3-dihydro-2,3-dihydroxybenzoate)
  Ratio (DHCP-treated/control): 0.44
Gene EntB (Isochorismatase)
  Ratio (DHCP-treated/control): 0.23
Gene EntC (Isochorismate synthase)
  Ratio (DHCP-treated/control): 0.45
Gene EntE (Enterochelin synthetase)
  Ratio (DHCP-treated/control): 0.32
Gene Fbp (Fructose-1,6-biphosphatase)
  Ratio (DHCP-treated/control): 4.00
Gene FruB (PTS system)
  Ratio (DHCP-treated/control): 0.12
Gene FruK (I-phosphofructokinase)
  Ratio (DHCP-treated/control): 0.03
Gene GalM (Aldose 1-epimerase)
  Ratio (DHCP-treated/control): 4.00
Gene Gale (UDP-glucose 4-epimerase)
  Ratio (DHCP-treated/control): 4.60
Gene MarA (Multiple antibiotic resistance protein MarA)
  Ratio (DHCP-treated/control): 5
Gene MdaB (Modulator of drug activity)
  Ratio (DHCP-treated/control): 10
Gene TalA (Patatire transaldolase)
  Ratio (DHCP-treated/control): 7.6
Gene TehB (Tellurite resistance protein TehB)
  Ratio (DHCP-treated/control): 5
Gene YidS (unknown function or class)
  Ratio (DHCP-treated/control): 4
Gene ZipA (Cell division protein)
  Ratio (DHCP-treated/control): 4.50
Gene ackA
  Decrease of mRNA level: 3.6 times
Gene ansP (L-asparagine permease)
  Ratio (DHCP-treated/control): 0.29
Gene atoE (Short-chain fatty acids)
  Ratio (DHCP-treated/control): 0.17
Gene atzN (Zinc-transporting ATPase)
  Ratio (DHCP-treated/control): 11 and 11.30
Gene cheA (Chemotaxis protein CheA)
  Ratio (DHCP-treated/control): 0.25
Gene cpxP (Periplasmic protein precursor)
  Ratio (DHCP-treated/control): 4.95
Gene creD (Inner-membrane protein CreD)
  Ratio (DHCP-treated/control): 47
Gene cysU (Sulfate transport system permease)
  Ratio (DHCP-treated/control): 4.99
Gene czcD (Cation efflux protein CzcD)
  Ratio (DHCP-treated/control): 3.60
Gene dps (DNA-binding protein Dps)
  Ratio (DHCP-treated/control): 13
Gene fadL (Long-chain fatty acid transport protein)
  Ratio (DHCP-treated/control): 0.10
Gene fecA (Iron(III) dicitrate transport protein FecA)
  Ratio (DHCP-treated/control): 0.16
Gene fecB (Iron(III) dicitrate-binding protein)
  Ratio (DHCP-treated/control): 0.15
Gene fecC (FecC protein)
  Ratio (DHCP-treated/control): 0.21
Gene fecD (Iron(III) dicitrate transport system protein)
  Ratio (DHCP-treated/control): 0.15
Gene fecE (Iron(III) dicitrate transport protein)
  Ratio (DHCP-treated/control): 0.11
Gene fepA (Ferrienterochelin receptor precursor)
  Ratio (DHCP-treated/control): 0.25
Gene fepC (Ferric enterobactin transport protein FepC)
  Ratio (DHCP-treated/control): 0.40
Gene fruB
  Inhibition of mRNA level: 8 times
Gene fruK
  Inhibition of mRNA level: 33 times
Gene glf (UDP-galactopyranose mutase)
  Ratio (DHCP-treated/control): 0.20
Gene hdeB (10k-1 protein precursor)
  Ratio (DHCP-treated/control): 6.00
Gene katG (Catalase HPI)
  Ratio (DHCP-treated/control): 9.00
Gene lysP (Lysin-specific permease)
  Ratio (DHCP-treated/control): 0.16
Gene motA (Chemotaxis protein MotA)
  Ratio (DHCP-treated/control): 0.18
Gene motB (Chemotaxis protein MotB)
  Ratio (DHCP-treated/control): 0.40
Gene msyB (Membrane protein)
  Ratio (DHCP-treated/control): 4.25
Gene nmpC (Outer membrane porin protein precursor)
  Ratio (DHCP-treated/control): 0.01
Gene ompA (Outer membrane protein a precursor)
  Ratio (DHCP-treated/control): 0.23
Gene ompC (Outer membrane protein c precursor)
  Ratio (DHCP-treated/control): 0.20
Gene ompF (Outer membrane protein f precursor)
  Ratio (DHCP-treated/control): 0.06
Gene ompT (ProteinaseVII)
  Ratio (DHCP-treated/control): 0.11
Gene osmY (Hyperosmotically induced protein)
  Ratio (DHCP-treated/control): 12.00
Gene otsA (Tehalose-6-phosphate synthase)
  Ratio (DHCP-treated/control): 11.00
Gene pheP (phenylalanine transport protein pheP)
  Ratio (DHCP-treated/control): 0.13
Gene plsX (PlsX protein)
  Ratio (DHCP-treated/control): 0.28
Gene potA (Spermidine/putrescine transport protein A)
  Ratio (DHCP-treated/control): 0.13
Gene potB (Spermidine/putrescine transport system)
  Ratio (DHCP-treated/control): 0.13
Gene potC (Spermidine/putrescine transport system)
  Ratio (DHCP-treated/control): 0.20
Gene potD (Spermidine/putrescine transport protein D)
  Ratio (DHCP-treated/control): 0.19
Gene poxB (Pyruvate dehydrogenase)
  Ratio (DHCP-treated/control): 15.00
Gene rfc (Probably O-antigen polymerase)
  Ratio (DHCP-treated/control): 0.23
Gene rplA (Ribosomal protein L1)
  Ratio (DHCP-treated/control): 0.23
Gene rplB (Ribosomal protein L2)
  Ratio (DHCP-treated/control): 0.25
Gene rplC (Ribosomal protein L3)
  Ratio (DHCP-treated/control): 0.28
Gene rplD (Ribosomal protein L4)
  Ratio (DHCP-treated/control): 0.27
Gene rplE (Ribosomal protein L5)
  Ratio (DHCP-treated/control): 0.34
Gene rplF (Ribosomal protein L6)
  Ratio (DHCP-treated/control): 0.30
Gene rplI (Ribosomal protein L9)
  Ratio (DHCP-treated/control): 0.25
Gene rplJ (Ribosomal protein L10)
  Ratio (DHCP-treated/control): 0.28
Gene rplK (Ribosomal protein L11)
  Ratio (DHCP-treated/control): 0.39
Gene rplM (Ribosomal protein L13)
  Ratio (DHCP-treated/control): 0.49
Gene rplN (Ribosomal protein L14)
  Ratio (DHCP-treated/control): 0.44
Gene rplO (Ribosomal protein L15)
  Ratio (DHCP-treated/control): 0.36
Gene rplP (Ribosomal protein L16)
  Ratio (DHCP-treated/control): 0.36
Gene rplQ (Ribosomal protein L17)
  Ratio (DHCP-treated/control): 0.47
Gene rplR (Ribosomal protein L18)
  Ratio (DHCP-treated/control): 0.38
Gene rplS (Ribosomal protein L19)
  Ratio (DHCP-treated/control): 0.35
Gene rplV (Ribosomal protein L22)
  Ratio (DHCP-treated/control): 0.28
Gene rplW (Ribosomal protein L23)
  Ratio (DHCP-treated/control): 0.27
Gene rplX (Ribosomal protein L24)
  Ratio (DHCP-treated/control): 0.31
Gene rplY (Ribosomal protein L25)
  Ratio (DHCP-treated/control): 0.28
Gene rpmB (Ribosomal protein L28)
  Ratio (DHCP-treated/control): 0.45
Gene rpmE (Ribosomal protein L31)
  Ratio (DHCP-treated/control): 0.39
Gene rpoS (RNP polymerase sigma factor RpoS)
  Ratio (DHCP-treated/control): 4
Gene sdaC (Probable serine transport protein)
  Ratio (DHCP-treated/control): 0.25
Gene secF (Secretion protein SecF)
  Ratio (DHCP-treated/control): 0.26
Gene secG (P12 cytoplasmic membrane protein)
  Ratio (DHCP-treated/control): 0.30
Gene secY (SecY protein)
  Ratio (DHCP-treated/control): 0.40
Gene tsr (Methyl-accepting chemotaxis protein1(mcp-1))
  Ratio (DHCP-treated/control): 0.22
Gene tsx (Nucleoside-specific channel-forming protein)
  Ratio (DHCP-treated/control): 0.22
Gene wrbA (Trp repressor binding protein)
  Ratio (DHCP-treated/control): 14.00
Gene yieI (unknown function or class)
  Ratio (DHCP-treated/control): 4
Gene znu (High-affinity zinc uptake system protein)
  Ratio (DHCP-treated/control): 0.13
Genes ackA, pta, radc, malE and trgB
  Induction of CreBC-regulated genes: not induced
Genes astD, tnaB and gabT
  Induction of genes: not induced
Genes cysG and cysS (not in Cys regulon)
  Effect on mRNA levels: not affected
Genes encoding outer membrane proteins (Omp)
  Decrease of mRNA levels: 5-15 times
Genes motA, motB and cheA (motor action)
  Decrease of mRNA levels: 4-6 times
Genes parc and parE (topoisomerase IV subunits)
  Change of mRNA levels: did not change
Genes rfa, wzb or hha
  Change of mRNA levels: did not change significantly
Most of the genes encoding ribosomal L proteins
  Reduction of mRNA levels: 2-3 times
